Read-outs that look alike come from different tables or passages of the source.
Key:
SERT [1] = target: T1, SERT (Rattus norvegicus, UniProt P31652); parameters: The frontal cortex of rat brain were dissected and homogenized in 30 volumes of buffer; from tissue; host or cells: rat frontal cortex membrane homogenates (male Sprague-Dawley rats, control and PCA-lesioned); conditions: Kung et al. 1992, cited from earlier work
[2] = target: T2, dopamine transporter (DAT) expressed in LLC-PK1 cells (Rattus norvegicus, UniProt P23977); experiment: [125I]IPT competition binding, LLC-DAT membrane homogenates
T2 construct: host or cells: LLC-PK1 (LLC-DAT)
Text: (§1) Three monoamine transporters expressed respectively in a common parental cell line, LLC-PK, (referred to as LLC-DAT. LLC-NET and LLC-SERT) were kindly provided by Dr. G. Rudnick of Yale University.

[3] = target: T3, serotonin transporter (SERT) expressed in LLC-PK1 cells (Rattus norvegicus, UniProt P31652); experiment: [125I]IPT competition binding, LLC-SERT membrane homogenates
T3 construct: host or cells: LLC-PK1 (LLC-SERT)
Text: as §1

SERT [4] = target: T1, SERT; experiment: In vivo competitive binding: drug pretreatment before [125I]IDAM; conditions: 2 mg/kg i.v. 5 min prior to tracer; 60 min after tracer
Method: Experiments were performed using groups of 3-4 animals per study. […] The reduction of regional specific binding in the drug-pretreated rats was compared to the control animals with saline pretreatment.

[5] = Partition coefficient octanol/buffer; type: physicochemical; conditions: 1-octanol/pH 7 buffer
SERT [6] = target: T1, SERT; experiment: Competition binding with [125I]IDAM in rat frontal cortical homogenate; parameters: The frontal cortex of rat brain were dissected and homogenized in 30 volumes of buffer; from tissue; host or cells: rat frontal cortex membrane homogenates (male Sprague-Dawley rats, control and PCA-lesioned)
Method: The homogenates were centrifuged at 20,000 g for 20 min. The resulting pellets were then re-suspended and recentrifuged. The final pellets were suspended in the same buffer and used for in vitro binding assays.
Various inhibitors were serially diluted with the buffer containing 0.1% BSA to overcome the stickiness and loss due to dilution. […] Incubation was carried out for 60 min at room temperature and then terminated by separation of bound from free radioligand by filtration through glass fiber filters (Schleicher & Schuell No. 25, Keene, N.H.) presoaked with 1% polyethylenimine. The filters were then washed three times with 3 ml of ice-cold […] Tris buffer and counted in a gamma counter (Packard 5000) with 70% efficiency. To study the effect of […], the homogenates were prepared in a sodium-free 50 mM Tris-HCl/5 mM KCl buffer.

[7] = target: T4, norepinephrine transporter (NET) expressed in LLC-PK1 cells (Homo sapiens, UniProt P23975); experiment: [125I]IPT competition binding, LLC-NET membrane homogenates
T4 construct: host or cells: LLC-PK1 (LLC-NET)
Text: as §1

[8] = Biodistribution in rats after i.v. injection of radioactive tracer; type: in vivo, rat
Method: Three or four rats per group were used for each biodistribution study. While under ether anesthesia, 0.2 ml of a saline solution containing 10 μCi of radioactive tracer was injected into the femoral vein. The rats were sacrificed at the time indicated by cardiac excision while under ether anesthesia. Organs of interest were removed and weighed, and the radioactivity was counted using a Packard automatic gamma counter (Model 5000). The percent dose per organ was calculated by a comparison of the tissue counts to counts of 1% of the initial dose (100 times diluted aliquots of the injected material) measured at the same time.
Regional brain distribution in rats was measured after an i.v. injection of the radioactive tracer. Samples from different brain regions [cortex (CX), striatum (ST), hippocampus (HP), cerebellum (CB) and hypothalamus (HY)] were dissected, weighed and counted. The percentage dose/g of each sample was calculated by comparing sample counts with the counts of the diluted initial dose described above. The ratio of specific binding (SB) in each region was obtained by dividing the difference of each region from the cerebellum (percentage dose/g) with that of the cerebellum [(region-CB)/CB].

[9] = [125I]IPT ligand, LLC-PK1 membranes, read-out: Inhibition constant (Ki) DAT
[10] = [125I]IPT ligand, LLC-PK1 membranes, read-out: Inhibition constant (Ki) NET
[11] = [125I]IPT ligand, LLC-PK1 membranes, read-out: Inhibition constant (Ki) SERT
[12] = 0.2 nM [125I]IDAM, rat frontal cortical homogenate, read-out: Ki for inhibition of [125I]IDAM binding

T4 sequence (P23975 whole entry): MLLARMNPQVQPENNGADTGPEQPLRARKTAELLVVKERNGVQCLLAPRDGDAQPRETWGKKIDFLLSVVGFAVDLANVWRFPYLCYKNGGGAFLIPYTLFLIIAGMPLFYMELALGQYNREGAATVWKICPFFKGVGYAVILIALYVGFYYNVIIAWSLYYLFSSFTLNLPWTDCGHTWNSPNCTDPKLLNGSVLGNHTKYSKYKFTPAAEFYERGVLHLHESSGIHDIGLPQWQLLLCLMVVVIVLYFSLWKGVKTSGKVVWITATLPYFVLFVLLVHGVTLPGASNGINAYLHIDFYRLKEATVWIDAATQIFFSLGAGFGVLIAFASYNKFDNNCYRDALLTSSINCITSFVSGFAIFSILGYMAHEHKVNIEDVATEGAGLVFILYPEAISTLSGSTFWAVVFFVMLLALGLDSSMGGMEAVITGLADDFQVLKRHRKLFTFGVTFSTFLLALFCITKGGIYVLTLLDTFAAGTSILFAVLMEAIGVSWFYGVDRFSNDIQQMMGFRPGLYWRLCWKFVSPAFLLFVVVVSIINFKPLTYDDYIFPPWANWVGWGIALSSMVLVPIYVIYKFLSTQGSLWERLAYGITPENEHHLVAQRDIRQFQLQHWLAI
T1 sequence (P31652 whole entry): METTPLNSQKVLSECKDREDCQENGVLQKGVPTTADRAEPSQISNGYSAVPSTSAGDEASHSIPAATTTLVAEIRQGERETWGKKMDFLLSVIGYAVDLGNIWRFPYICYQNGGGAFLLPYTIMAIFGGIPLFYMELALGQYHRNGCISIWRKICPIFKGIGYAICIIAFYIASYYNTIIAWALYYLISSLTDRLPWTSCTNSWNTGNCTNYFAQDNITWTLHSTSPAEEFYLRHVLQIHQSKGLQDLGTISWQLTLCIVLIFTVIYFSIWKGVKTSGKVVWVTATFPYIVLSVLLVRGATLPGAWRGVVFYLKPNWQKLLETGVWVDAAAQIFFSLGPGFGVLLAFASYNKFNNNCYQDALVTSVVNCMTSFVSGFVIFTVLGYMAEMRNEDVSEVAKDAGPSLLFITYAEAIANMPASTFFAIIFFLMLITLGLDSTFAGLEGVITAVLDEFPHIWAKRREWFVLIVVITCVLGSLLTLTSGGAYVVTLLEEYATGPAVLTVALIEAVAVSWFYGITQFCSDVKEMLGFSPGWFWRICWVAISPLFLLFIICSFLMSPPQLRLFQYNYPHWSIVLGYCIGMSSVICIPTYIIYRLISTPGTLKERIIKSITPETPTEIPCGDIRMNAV
T3 sequence (P31652 whole entry): as above
T2 sequence (P23977 whole entry): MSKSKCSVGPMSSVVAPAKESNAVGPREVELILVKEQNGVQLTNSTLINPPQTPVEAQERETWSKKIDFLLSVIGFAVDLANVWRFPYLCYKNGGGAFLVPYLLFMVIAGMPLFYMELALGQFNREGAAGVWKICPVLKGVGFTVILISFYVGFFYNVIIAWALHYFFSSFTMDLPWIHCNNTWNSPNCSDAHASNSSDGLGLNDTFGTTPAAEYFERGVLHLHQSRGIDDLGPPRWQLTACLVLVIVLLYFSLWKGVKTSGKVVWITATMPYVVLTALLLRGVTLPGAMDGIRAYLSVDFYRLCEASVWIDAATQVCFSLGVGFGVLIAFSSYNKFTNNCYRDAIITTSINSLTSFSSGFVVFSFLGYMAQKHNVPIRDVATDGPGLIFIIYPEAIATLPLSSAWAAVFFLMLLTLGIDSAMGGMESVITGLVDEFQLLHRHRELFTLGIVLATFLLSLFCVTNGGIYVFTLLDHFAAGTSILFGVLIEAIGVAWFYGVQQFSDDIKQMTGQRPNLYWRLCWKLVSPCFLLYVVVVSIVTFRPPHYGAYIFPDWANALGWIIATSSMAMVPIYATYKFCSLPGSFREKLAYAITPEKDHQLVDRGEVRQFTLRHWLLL

SMILES: CNCCC(Oc1ccc(I)cc1C)c1ccccc1 (stereo not shown) [4-I-tomoxetine]
- Kd (SERT [1]): 0.04 nM
- nonspecific binding (SERT [1]; at Kd value): > 25%

SMILES: CN(C)Cc1ccccc1Sc1ccc(I)cc1CO [IDAM, 5-iodo-2-[[2-2[(dimethylamino)methyl]phenyl]thio]benzyl alcohol]
- Ki [2, 9]: > 10000 nM
- Ki [3]: < 0.1 nM
- selectivity for SERT ([3]; SERT versus DAT and NET): more than 1,000 fold
- effect of pretreatment on specific binding of [125I]IDAM in rat brain regions (SERT [4]): dramatically reduced
- partition coefficient [5]: 473
- Ki (SERT [6]): 0.08 nM

SMILES: CC(=O)OCc1cc(Br)ccc1Sc1ccccc1CN(C)C [K68]
- Ki [2, 9]: 20.4 ± 1.55 nM
- Ki [7, 10]: 420 ± 62.5 nM
- Ki [3, 11]: 2.42 ± 0.06 nM

SMILES: CN(C)Cc1ccccc1Sc1ccc(Br)cn1 [K102]
- Ki [3, 11]: > 1000 nM

SMILES: COCc1cc(I)ccc1Sc1ccccc1CN(C)C [K104]
- Ki [2]: 11000 ± 200 nM
- Ki [7]: 155 ± 18.7 nM
- Ki [3]: 0.02 nM

SMILES: CN(C)Cc1ccccc1Sc1ccccc1N [K109]
- Ki [2, 9]: 1700 ± 600 nM
- Ki [3, 11]: 0.038 ± 0.01 nM

SMILES: CN(C)Cc1ccccc1Sc1ccc(Br)cc1[N+](=O)[O-] [K110]
- Ki [2, 9]: 14700 ± 2200 nM
- Ki [3, 11]: 1.9 nM

SMILES: CCOCc1cc(I)ccc1Sc1ccccc1CN(C)C [K119]
- Ki [2, 9]: 11100 ± 1100 nM
- Ki [3, 11]: 0.234 nM

SMILES: CCCOCc1cc(I)ccc1Sc1ccccc1CN(C)C [K120]
- Ki [2, 9]: 9300 ± 200 nM
- Ki [7, 10]: 382 ± 46 nM
- Ki [3, 11]: 0.33 ± 0.06 nM

SMILES: CN(C)Cc1ccccc1Sc1ccc(Br)cc1NO [K99025]
- Ki [7, 10]: 165 ± 9 nM
- Ki [3, 11]: ~0.075 nM

SMILES: CN(C)Cc1ccccc1Sc1ccc(Br)cc1N [K99026]
- Ki [7]: 214 ± 68 nM
- Ki [3, 11]: ~0.022 nM

SMILES: CN(C)Cc1ccccc1Sc1ccc(I)cc1N [K99028]
- Ki [7, 10]: 699 ± 80 nM
- Ki [3]: ~0.013 nM

SMILES: CNCc1ccccc1Sc1ccc(I)cc1CO [K99032]
- Ki [3, 11]: < 0.01 nM

SMILES: CN(C)Cc1ccccc1Sc1ccc(Cl)cc1CO [K99033]
- Ki [3]: < 0.01 nM

SMILES: CN(C)Cc1cc(N)ccc1Cc1ccccc1 [K99034]
- Ki [3, 11]: 35 ± 2.5 nM

SMILES: Cc1ccccc1Nc1ccc(N)cc1CN(C)C [K99036]
- Ki [3, 11]: 139 ± 15 nM

SMILES: Cc1ccccc1Nc1ccc(I)cc1CN(C)C [K99037]
- Ki [3, 11]: 27.3 ± 6.9 nM

SMILES: CN(C)Cc1ccccc1Oc1ccc(I)cc1 [K99039]
- Ki [3, 11]: < 0.01 nM

SMILES: CN(C)Cc1ccccc1Oc1ccc(I)cc1CO [ODAM, 5-Iodo-2-(2-dimethylaminomethylphenoxy)-benzyl alcohol]
- Ki [2, 9]: 3900 ± 700 nM
- Ki [3, 11]: 0.12 nM
- % dose/organ BRAIN ([8]; 2 min): 2.03 % dose/organ
- Regional brain distribution (ratio/CB) HYPOTHALAMUS ([8]; 2 min): 1.22
- % dose/organ BRAIN ([8]; 30 min): 1.49 % dose/organ
- Regional brain distribution (ratio/CB) HYPOTHALAMUS ([8]; 30 min): 1.86
- % dose/organ BRAIN ([8]; 60 min): 0.79 % dose/organ
- Regional brain distribution (ratio/CB) HYPOTHALAMUS ([8]; 60 min): 1.86
- % dose/organ BRAIN ([8]; 120 min): 0.27 % dose/organ
- Regional brain distribution (ratio/CB) HYPOTHALAMUS ([8]; 120 min): 1.63
- % dose/organ BRAIN ([8]; 240 min): 0.07 % dose/organ
- Regional brain distribution (ratio/CB) HYPOTHALAMUS ([8]; 240 min): 1.34
- Ki (SERT [6]; [12]): 2.88 ± 0.88 nM

SMILES: CCN1CCC[C@H]1CNC(=O)c1c(O)c(Cl)cc(Cl)c1OC [Raclopride, raclopride]
- effect of pretreatment on specific binding of [125I]IDAM in rat brain regions (SERT [4]): no effect
- Ki (SERT [6]; [12]): 669 nM

SMILES: CN(C)Cc1ccccc1Oc1ccc([125I])cc1CO [[^125I]ODAM, 5-[123-Iodo or 125-iodo]-2-(2-dimethylaminomethylphenoxy)-benzyl alcohol]
- % dose/organ BLOOD ([8]; 2 min): 3.009 ± 0.212 % dose/organ
- % dose/organ BRAIN ([8]; 2 min): 2.033 ± 0.087 % dose/organ
- % dose/organ THYROID ([8]; 2 min): 0.080 ± 0.019 % dose/organ
- Regional brain distribution (ratio/CB) CEREBELLUM ([8]; 2 min): 1.000
- Regional brain distribution (ratio/CB) CORTEX ([8]; 2 min): 1.436
- Regional brain distribution (ratio/CB) HIPPOCAMPUS ([8]; 2 min): 0.983
- Regional brain distribution (ratio/CB) HYPOTHALAMUS ([8]; 2 min): 1.221
- Regional brain distribution (ratio/CB) STRIATUM ([8]; 2 min): 0.906
- % dose/organ BLOOD ([8]; 30 min): 3.517 ± 0.504 % dose/organ
- % dose/organ BRAIN ([8]; 30 min): 1.489 ± 0.146 % dose/organ
- % dose/organ THYROID ([8]; 30 min): 0.039 ± 0.006 % dose/organ
- Regional brain distribution (ratio/CB) CEREBELLUM ([8]; 30 min): 1.000
- Regional brain distribution (ratio/CB) CORTEX ([8]; 30 min): 1.771
- Regional brain distribution (ratio/CB) HIPPOCAMPUS ([8]; 30 min): 1.563
- Regional brain distribution (ratio/CB) HYPOTHALAMUS ([8]; 30 min): 1.860
- Regional brain distribution (ratio/CB) STRIATUM ([8]; 30 min): 1.590
- % dose/organ BLOOD ([8]; 60 min): 3.296 ± 0.373 % dose/organ
- % dose/organ BRAIN ([8]; 60 min): 0.785 ± 0.231 % dose/organ
- % dose/organ THYROID ([8]; 60 min): 0.028 ± 0.005 % dose/organ
- Regional brain distribution (ratio/CB) CEREBELLUM ([8]; 60 min): 1.000
- Regional brain distribution (ratio/CB) CORTEX ([8]; 60 min): 1.690
- Regional brain distribution (ratio/CB) HIPPOCAMPUS ([8]; 60 min): 1.791
- Regional brain distribution (ratio/CB) HYPOTHALAMUS ([8]; 60 min): 1.858
- Regional brain distribution (ratio/CB) STRIATUM ([8]; 60 min): 1.605
- % dose/organ BLOOD ([8]; 120 min): 1.868 ± 0.186 % dose/organ
- % dose/organ BRAIN ([8]; 120 min): 0.267 ± 0.066 % dose/organ
- % dose/organ THYROID ([8]; 120 min): 0.034 ± 0.006 % dose/organ
- Regional brain distribution (ratio/CB) CEREBELLUM ([8]; 120 min): 1.000
- Regional brain distribution (ratio/CB) CORTEX ([8]; 120 min): 1.672
- Regional brain distribution (ratio/CB) HIPPOCAMPUS ([8]; 120 min): 1.846
- Regional brain distribution (ratio/CB) HYPOTHALAMUS ([8]; 120 min): 1.630
- Regional brain distribution (ratio/CB) STRIATUM ([8]; 120 min): 1.617
- % dose/organ BLOOD ([8]; 240 min): 0.976 ± 0.073 % dose/organ
- % dose/organ BRAIN ([8]; 240 min): 0.065 ± 0.017 % dose/organ
- % dose/organ THYROID ([8]; 240 min): 0.041 ± 0.038 % dose/organ
- Regional brain distribution (ratio/CB) CEREBELLUM ([8]; 240 min): 1.000
- Regional brain distribution (ratio/CB) CORTEX ([8]; 240 min): 1.322
- Regional brain distribution (ratio/CB) HIPPOCAMPUS ([8]; 240 min): 1.648
- Regional brain distribution (ratio/CB) HYPOTHALAMUS ([8]; 240 min): 1.343
- Regional brain distribution (ratio/CB) STRIATUM ([8]; 240 min): 1.539

SMILES: CN(C)Cc1ccccc1Sc1ccc(Br)cc1CO [brominated derivative, 5-bromo-2-[[2-2[(dimethylamino)methyl]phenyl]thio]benzyl alcohol]
- Ki [2, 9]: > 10000 nM
- Ki [7, 10]: 35.4 nM
- Ki [3, 11]: < 0.1 nM

SMILES: COC(=O)C(c1ccccc1)C1CCCCN1 (stereo not shown) [methylphenidate]
- effect of pretreatment on specific binding of [125I]IDAM in rat brain regions (SERT [4]): no effect
- Ki (SERT [6]): > 1000 nM
- Ki for inhibition of [125I]IDAM binding (SERT [6]; 0.2 nM [125I]IDAM, rat frontal cortical homogenate): much less potent
